Measurements published in patent US20210177722A1, “Phytic Acid Ester Derivative” (NATIONAL UNIVERSITY CORPORATION KUMAMOTO UNIVERSITY, priority 2018, published 2021).

How the values were obtained:
[1] = test system: S1T cell (ATL cell line) tumor; test: Effect on HTLV-1 infected cell-transplanted mouse (ATL model); format: in vivo; conditions: day 28 after transplantation, 20 mg/kg per day intraperitoneally for 28 days, NSG mice with S1T cells
Text: In this example, the in vivo effect of Pro-IP6 on an HTLV-1 infected cell-transplanted mouse was checked. HTLV-1 (human T cell leukemia virus 1) mainly infects CD4-positive T lymphocyte, and when the infected cell cancerates, refractory malignant tumor, adult T-cell leukemia (ATL) is caused. In this example, S1T cell, that is, one of ATL cell lines, was used.
5-Week-old female NSG mice (NOD. Cg-Prkdc scid I12rg tm1Wjl/SzJ, Charles River Laboratories Japan, Inc.) were used. Five mice each in each of two cages, namely, ten mice in total, were raised with sterilized bedding (Pepar Clean: Japan SLC, Inc.) placed in a sterilized cage (Clea Japan, Inc.). […]
The control group was dosed with DMSO, and the IP6 administration group and the pro-IP6 administration group were intraperitoneally dosed respectively with IP6 in an amount of 7.1 mg/kg and pro-IP6 in an amount of 20 mg/kg. The mice were dosed continuously for 28 days after the day of the cell transplantation, and the weight and the tumor volume of each mouse were measured every day. The tumor volume was defined as (shorter diameter in mm)^2×(longer diameter in mm)×0.5, and the shorter diameter and the longer diameter were measured with a caliper. […] Subsequently, the tumor was totally removed, and the tumor volume and the tumor weight of each tumor were measured.

[2] = test system: MT-2 cell (HTLV transformed human T cell leukemia cell); test: MTT assay, MT-2 cell; format: cell-based; conditions: 1 μM or 10 μM, 8 hours or 24 hours
Method: In this example, the cytotoxic effect of Pro-IP6 on four types of blood cancer cell lines and a cell derived from a healthy person was examined by MTT assay. […] It is possible to check viability of cultured cells by MTT assay. Cancer cell lines (1.74×10^4 cells/well, culture fluid: 200 μL) • MT-2 cell (HTLV transformed human T cell leukemia cell) • […] cell (human T-lymphoblastoid cell) • Jurkat cell (human T-lymphocyte cell) • K562 cell (chronic myelogenous leukemia cell) Each of the above-described types of cells was seeded in a 96-well plate, and was cultured for 8 hours for each of the various cancer cell lines and for 16 hours for PMBC. Thereafter, DMSO (1%, Fujifilm Wako Pure Chemical Corporation), an aqueous solution (1%) of IP6 (final concentration: 1 μM or 10 μM, Sigma Aldrich), or a DMSO solution (1%) of Pro-IP6 (final concentration: 1 μM or 10 μM) was added thereto, followed by culturing for 8 hours or 24 hours. An MTT reagent (Dojindo Laboratories, 1.1 mg/mL) was added in an amount of 50 μL per well, and the resultant was cultured for another 4 hours. The thus precipitated crystal was collected, a supernatant was removed, and 100 μL of DMSO was added thereto to completely dissolve. The resultant solution was measured for an absorbance (550 nm).

Question: CCCC(=O)OCOP(=O)(OCOC(=O)CCC)O[C@H]1[C@H](OP(=O)(OCOC(=O)CCC)OCOC(=O)CCC)[C@@H](OP(=O)(OCOC(=O)CCC)OCOC(=O)CCC)[C@H](OP(=O)(OCOC(=O)CCC)OCOC(=O)CCC)[C@@H](OP(=O)(OCOC(=O)CCC)OCOC(=O)CCC)[C@H]1OP(=O)(OCOC(=O)CCC)OCOC(=O)CCC [Pro-IP6, myo-inositol hexaphosphate dodecakis(butyryloxymethyl) ester] was tested. Which “tumor volume smaller as compared with that of the control group” value [1] did it give?
Answer: about 25%

Question: And the “lowering of relative cell viability” value [2]?
Answer: ≥ 25%
